In publication PMC12051030, “Identification of inhibitors of the Salmonella FraB deglycase, a drug target” (FEBS Open Bio, 2025):

How the values were obtained:
[1] = biological target: FraB (Salmonella enterica subsp. enterica serovar Typhimurium, UniProt Q8ZLD0); test: Native MS of FraB–inhibitor complexes; type: binding
Protocol: For MS analysis, FraB was buffer exchanged into 200 mM ammonium acetate (AmAc) (Sigma‐Aldrich) or 66.7 mM ethylenediaminediacetic acid (EDDA) (Sigma‐Aldrich) using micro Bio‐spin P6 spin columns (Bio‐Rad); AmAc and EDDA concentrations were chosen to ensure the same ionic strength. The pH was adjusted to 7.5 by adding ammonium hydroxide solution (Sigma‐Aldrich). 6‐P‐F‐Asp was diluted with water, while three different inhibitors [3470:A09, 3469:F02, and 3469:N17, all purchased from either ChemDiv (San Diego, CA, USA) or Ambinter (Orléans, France)] were diluted in DMSO. The final concentration of DMSO used in the native MS experiments was 4.8% (v/v) or 1% (v/v) for the compounds obtained from ChemDiv or Ambinter, respectively.
For the characterization of FraB–inhibitor complexes, the protein was diluted into 200 mM AmAc and then mixed with inhibitors to final concentrations of 3 μM FraB and 120 μM inhibitor. After adding the inhibitors, the FraB–inhibitor complex was incubated for 20 min at 20 °C before injecting into the mass spectrometry (MS). For the characterization of FraB–inhibitor–substrate complexes, FraB was diluted into 66.7 mM EDDA, mixed with inhibitors, incubated at 20 °C for 20 min, and subsequently mixed with 6‐P‐F‐Asp. The final concentrations were as follows: 3 μM FraB (monomer concentration), 120 μM inhibitor, and 600 μM 6‐P‐F‐Asp.
Native MS experiments were performed on Thermo Q Exactive ultra high mass range (UHMR) Orbitrap. Samples were introduced into the MS instrument by nano‐electrospray ionization, which using glass capillary tips pulled in‐house using a P‐97 micropipette puller (Sutter Instruments, Novato, CA, USA). Each sample (3–5 μL) was loaded into the tips, and the electrospray voltage was set between 0.6 and 1.0 kV. The mass spectrometer was operated in positive mode using the following tuning settings: Capillary temperature: 200 °C detector optimization: low m/z; ion transfer target: high m/z; in‐source trapping (IST): 50 V, except when applying higher IST to disrupt the FraB–inhibitor interactions; HCD trap gas flow: 5; Resolution: 12 500. Mass spectra were collected after the spray stabilized (typically < 5 min) and then examined using XCalibur 4.1 (Thermo Scientific), and deconvolved using UniDec software.

[2] = biological target: His6‐FraB (Salmonella FraB deglycase) (Salmonella enterica subsp. enterica serovar Typhimurium, UniProt Q8ZLD0); test: FraB-G6PD coupled assay, Michaelis–Menten analysis for K I and mode of inhibition; type: biochemical
His6‐FraB (Salmonella FraB deglycase), sequence (Q8ZLD0 entry or part of it): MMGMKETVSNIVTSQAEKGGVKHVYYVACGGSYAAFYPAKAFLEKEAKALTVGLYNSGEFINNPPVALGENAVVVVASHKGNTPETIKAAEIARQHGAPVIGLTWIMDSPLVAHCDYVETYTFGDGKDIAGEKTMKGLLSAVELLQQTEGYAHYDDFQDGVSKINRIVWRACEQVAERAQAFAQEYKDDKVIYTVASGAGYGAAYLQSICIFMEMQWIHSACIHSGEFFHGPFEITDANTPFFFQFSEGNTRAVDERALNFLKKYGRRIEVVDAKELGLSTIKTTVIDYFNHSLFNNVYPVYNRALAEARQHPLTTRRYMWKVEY
Protocol: To determine the K I of each inhibitor, 29 μL of master mix was added to two rows of a 384‐well Greiner plate, using a single‐channel pipette, and incubated at 20 °C for 20 min. A 12‐channel pipette was then used to transfer and mix 1 μL of varying [6‐P‐F‐Asp] to all 48 wells. The final reaction (30 μL) consisted of 25 mM HEPES pH 8.0 at 20 °C, 5 mM MgCl2, 0.1 mM EGTA, 0.5 mM NAD^+, 1 mU G6PD, 100 nM His6‐FraB, varying (6‐P‐F‐Asp) (between 8 and 12 concentrations), and varying [inhibitor] (between three and five concentrations) in 10% (v/v) DMSO. NADH fluorescence was monitored every 10 s for 10 min total on a SPARK® multi‐mode multiplate reader (Tecan), as described above, and plotted against time. Slopes of the linear range of each curve were converted to initial velocities, as described above, that were then plotted against [6‐P‐F‐Asp]. A hyperbolic curve was then fitted to the data to obtain the k cat and K m values according to the formula: v o = (V max × [S])/(K m + [S]).
To determine the correlation between the observed and expected initial velocities (Fig. S5A), these values were exported from Kaleidagraph, plotted against one another, and a curve was fit using the formula: y = mx + b. The differences between observed and expected initial velocities (residuals) were then depicted as box‐and‐whisker plots (Fig. S5B). Lineweaver‐Burk plots were generated by graphing 1/v o versus 1/[S] and curves were fit to the data with Kaleidagraph using the formula: 1/v o = (Km/V max).(1/[S]) + (1/V max). The k cat and K m parameters were then converted into α′ values by dividing the k cat of the control (no inhibitor) by either itself (α′= 1) or the k cat of test samples with variable [inhibitor]. Those α′ values were plotted against [inhibitor] and K I values were determined from the equation α = 1 + [I]/K I.
The initial velocities used to generate the Michaelis–Menten plots were also employed to obtain the IC50 vs [S]/K m plots. For a given [S], initial velocities were converted into relative activities and plotted versus [inhibitor]. […] The IC50 values determined from the IC50 vs [S]/K m plots were then used to plot 1/IC50 versus v o/V max. A curve was fit to the data using the formula: y = mx + b. The Y‐intercept of the 1/IC50 versus v o/V max plot is equal to 1/K IC, and the slope, for mixed inhibitors, is equal to 1/K IU – 1/K IC. […] Data analyses were performed as described above (see Tables S1–S7 for curve‐fit errors and goodness‐of‐fit values).

FraB, sequence (Q8ZLD0 entry or part of it): as above

For Fc1ccc(-c2nn3c(-c4ccccn4)nnc3s2)cc1 [3469:N17, 6‐(4‐fluorophenyl)‐3‐pyridin‐2‐yl‐[1,2,4]triazolo[3,4‐b][1,3,4]thiadiazole], the “binding to FraB in the presence of substrate (native MS)” value ([1]; 3 μM FraB, 120 μM inhibitor, 600 μM 6‐P‐F‐Asp) was “can bind either free enzyme or the enzyme‐substrate complex”, the “binding to FraB by native MS (species observed)” value ([1]; 3 μM FraB, 120 μM inhibitor, IST 50 V, E2I/E2I2 = FraB dimer bound to one or two inhibitor copies) was “distinct peaks corresponding to E2I and E2I2” and the “type of FraB–inhibitor interaction (covalent vs noncovalent)” value ([1]; decrease in E2I and E2I2 with increasing IST voltage) was “noncovalent”. For the same molecule, the “change of IC50 values with increasing [S]/K m” value ([2]; 'this trend' = IC50 does not vary with [S]/K m, change evident only from 0.2 to 1.6× [S]/K m) was “modest decrease”, the “slope in plots of 1/IC50 vs. v o/V max” value ([2]; Fig. S12) was “weakly positive” and the IC50 ([2]; IC50 (IC50 versus [S]/Km plots), Trial 1, 6-P-F-Asp 7.38 µM, S/Km 0.175714, unit from Fig. S11 axis) was 47.9 µM. The IC50 ([2]; IC50 (IC50 versus [S]/Km plots), Trial 1, 6-P-F-Asp 15.7 µM, S/Km 0.37381, unit from Fig. S11 axis) was 45.4 µM, the IC50 ([2]; IC50 (IC50 versus [S]/Km plots), Trial 1, 6-P-F-Asp 31.3 µM, S/Km 0.745238, unit from Fig. S11 axis) was 40.9 µM and the IC50 ([2]; IC50 (IC50 versus [S]/Km plots), Trial 1, 6-P-F-Asp 62.5 µM, S/Km 1.488095, unit from Fig. S11 axis) was 34.9 µM. For the same molecule, the IC50 ([2]; IC50 (IC50 versus [S]/Km plots), Trial 1, 6-P-F-Asp 125 µM, S/Km 2.97619, unit from Fig. S11 axis) was 32.7 µM, the IC50 ([2]; IC50 (IC50 versus [S]/Km plots), Trial 1, 6-P-F-Asp 250 µM, S/Km 5.952381, unit from Fig. S11 axis) was 34.1 µM and the IC50 ([2]; IC50 (IC50 versus [S]/Km plots), Trial 1, 6-P-F-Asp 500 µM, S/Km 11.90476, unit from Fig. S11 axis) was 30.1 µM. It also gave an IC50 ([2]; IC50 (IC50 versus [S]/Km plots), Trial 1, 6-P-F-Asp 750 µM, S/Km 17.85714, unit from Fig. S11 axis) of 33.4 µM, an IC50 ([2]; IC50 (IC50 versus [S]/Km plots), Trial 1, 6-P-F-Asp 1000 µM, S/Km 23.80952, unit from Fig. S11 axis) of 32.7 µM and an IC50 ([2]; IC50 (IC50 versus [S]/Km plots), Trial 1, 6-P-F-Asp 2000 µM, S/Km 47.61905, unit from Fig. S11 axis) of 32.5 µM. It also gave an IC50 ([2]; IC50 (IC50 versus [S]/Km plots), Trial 1, 6-P-F-Asp 3000 µM, S/Km 71.42857, unit from Fig. S11 axis) of 39.3 µM, an IC50 ([2]; IC50 (IC50 versus [S]/Km plots), Trial 2, 6-P-F-Asp 7.38 µM, S/Km 0.175714, unit from Fig. S11 axis) of 36.6 µM and an IC50 ([2]; IC50 (IC50 versus [S]/Km plots), Trial 2, 6-P-F-Asp 15.7 µM, S/Km 0.37381, unit from Fig. S11 axis) of 44.8 µM. It also gave an IC50 ([2]; IC50 (IC50 versus [S]/Km plots), Trial 2, 6-P-F-Asp 31.3 µM, S/Km 0.745238, unit from Fig. S11 axis) of 48.2 µM, an IC50 ([2]; IC50 (IC50 versus [S]/Km plots), Trial 2, 6-P-F-Asp 62.5 µM, S/Km 1.488095, unit from Fig. S11 axis) of 48.5 µM and an IC50 ([2]; IC50 (IC50 versus [S]/Km plots), Trial 2, 6-P-F-Asp 125 µM, S/Km 2.97619, unit from Fig. S11 axis) of 37.7 µM. It also gave an IC50 ([2]; IC50 (IC50 versus [S]/Km plots), Trial 2, 6-P-F-Asp 250 µM, S/Km 5.952381, unit from Fig. S11 axis) of 34 µM, an IC50 ([2]; IC50 (IC50 versus [S]/Km plots), Trial 2, 6-P-F-Asp 500 µM, S/Km 11.90476, unit from Fig. S11 axis) of 32.9 µM and an IC50 ([2]; IC50 (IC50 versus [S]/Km plots), Trial 2, 6-P-F-Asp 750 µM, S/Km 17.85714, unit from Fig. S11 axis) of 35.9 µM. It also gave an IC50 ([2]; IC50 (IC50 versus [S]/Km plots), Trial 2, 6-P-F-Asp 1000 µM, S/Km 23.80952, unit from Fig. S11 axis) of 34.9 µM, an IC50 ([2]; IC50 (IC50 versus [S]/Km plots), Trial 2, 6-P-F-Asp 2000 µM, S/Km 47.61905, unit from Fig. S11 axis) of 39.2 µM and an IC50 ([2]; IC50 (IC50 versus [S]/Km plots), Trial 2, 6-P-F-Asp 3000 µM, S/Km 71.42857, unit from Fig. S11 axis) of 42.2 µM. It also gave an IC50 ([2]; IC50, mean and standard deviation of all IC50 values in IC50 vs [S]/Km plot, trial shown in Fig. S11 panels M-X) of 40 ± 6 µM, a Ki ([2]; K I, from Michaelis–Menten analysis of FraB at different inhibitor concentrations, average and standard error from two measurements) of 28.5 ± 3.5 µM and a Ki ([2]; KI from α′ vs [I] plot, trial shown in Fig. S11 panels M-X) of 25 µM. For the same molecule, the Ki ([2]; KI from α′ vs [I] plot, trial shown in Fig. S11 panels Y-AJ) was 32 µM, the “K IU/K IC ratio” value ([2]; average (±SE), from 1/IC50 versus v o/V max plots) was 0.7 ± 0.1 and the mode of inhibition ([2]; kinetic analyses (Lineweaver‐Burk, α′ vs [I], IC50 vs [S]/K m, 1/IC50 vs v o/V max)) was “mixed‐type uncompetitive”.
